In patent US9187507B2 (Institute of Pharmacology and Toxicology Academy of …, priority 2009, dated 2015):
pIC50: −log10 of the molar value. Like-named read-outs stand apart in the source and are kept apart here.

Assays:
[1] = Cytotoxicity by MTT method; format: cell-based; conditions: human; Hep G2 cells; MTT on the 3rd day of adding drugs; absorption at 540 nm
Experimental: The cytotoxicity of the desired compounds were measured by MTT method: Hep G2 cells were cultured in a DMEM culture medium containing 10% bovine calf serum, incubated in a 5% CO2 incubator, then the cells were inoculated in 96-well plate, cell count 5×10^4, continuously cultured for 3 days, added with new culture media with different drug concentrations, in which 3 parallel wells were set; on the 3rd day of adding drugs, MTT was added to 7.5 mg/ml, the culture was kept for further 2 h, the supernatant was discarded, isopropanol containing 10% […] was added, 120 μl/well, then added 0.4 μl/well again, enzyme-linked meter was used to measure the absorption at 540 nm, calculate 50% inhibition concentration, i.e., CC50 value.

HBV DNA = experiment: Test of in vitro activity against HBV: inhibition of HBV DNA in Hep G 2.2.15 cells by quantitative real-time fluorescent PCR; format: cell-based; conditions: Hepatitis B virus, HepG2.2.15
Experimental: By an in vitro test method of using Hep G 2.2.15 cells, the inhibition effects and cytotoxicity of the desired compounds to HBV DNA were measured.
By using quantitative and real-time fluorescent PCR method, the inhibition effects of the desired compounds to HBV DNA were measured: Hep G 2.2.15 cells were cultured in a DMEM culture medium containing 10% bovine calf serum, incubated in a 5% CO2 incubator, then the cells were inoculated in 96-well plate, cell count 3×10^4, continuously cultured, when the cell density reached about 80%, the used culture medium was discarded, and new culture media with different drug concentrations were added, in which 3 parallel wells were set; the culture media were exchanged every three days. On the 10th day of using drug, 100 μl of supernatant was taken and measured to determine HBV DNA content by quantitative PCR method, calculate 50% inhibition concentration, i.e., IC50 value.

[2] = tested on: HBV strains with resistance to lamivudine; conditions: cited from earlier work
[3] = tested on: other retro viruses such as HIV and HSV; conditions: cited from earlier work
HBV = conditions: anti-HBV, cited from earlier work
[4] = human body, after MCC-478; cited from earlier work
hepatitis B virus = conditions: clinical; cited from earlier work

Compound | CC50 at 3 days [1] | pIC50 (HBV DNA) | also measured
COc1ccc(Sc2nc(N)nc3c2ncn3CCOCP(=O)(OCC(F)(F)F)OCC(F)(F)F)cc1 [MCC-478] | > 1000 µM | – | pIC50 (HBV DNA; Hep G 2.2.15 cells, HBV DNA content in supernatant by quantitative PCR on the 10th day of using drug, read-out: IC50): 7.80; inhibition effects on HBV strains with resistance to lamivudine [2]: has inhibition effects; activity against other retro viruses such as HIV and HSV [3]: no activity; in vitro activity, times that of adefovir (HBV; relative to adefovir): 10-20 times; in vitro activity, times that of lamivudine (HBV; relative to lamivudine): 20-80 times
COc1ccc(Sc2nc(N)nc3c2ncn3CCOCP(=O)(O)O)cc1 [Compound 602076, 2-amino-6-(4-methoxyphenylthio)-9-(2-phosphonomethoxyethyl)-purine] | – | – | concentration of the free acid 602076 in blood relative to that of the monoester 602074 [4]: 1/10
interferon | – | – | effective rate of treatment (hepatitis B virus): 30-50%
COc1ccc(Sc2nc(N)nc3c2ncn3CCOCP(=O)(OCOC(=O)OC2CCCCC2)OCOC(=O)OC2CCCCC2)cc1 [Compound I12] | > 1000 µM | 7.96 | –
COc1ccc(Sc2nc(N)nc3c2ncn3CCOCP(=O)(OCOC(=O)C2CCCCC2)OCOC(=O)C2CCCCC2)cc1 [Compound I4] | > 1000 µM | 7.92 | –
COc1ccc(Sc2nc(N)nc3c2ncn3CCOCP(=O)(OCOC(=O)C(C)C)OCOC(=O)C(C)C)cc1 [Compound I2] | > 1000 µM | 7.70 | –
COc1ccc(Sc2nc(N)nc3c2ncn3CCOCP(=O)(OCOC(=O)OCC(C)C)OCOC(=O)OCC(C)C)cc1 [Compound I9] | > 1000 µM | 7.68 | –
COc1ccc(Sc2nc(N)nc3c2ncn3CCOCP(=O)(OCOC(=O)OC(C)C)OCOC(=O)OC(C)C)cc1 [Compound I8] | > 1000 µM | 8.30 | –
COc1ccc(Sc2nc(N)nc3c2ncn3C[C@@H](C)OCP(=O)(OCOC(=O)C(C)(C)C)OCOC(=O)C(C)(C)C)cc1 [Compound I5] | > 1000 µM | 8.22 | –
COc1ccc(Sc2nc(N)nc3c2ncn3CCOCP(=O)(OCOC(=O)C(C)(C)C)OCOC(=O)C(C)(C)C)cc1 [Compound I3] | > 1000 µM | 7.82 | –
COc1ccc(Sc2nc(N)nc3c2ncn3C[C@@H](C)OCP(=O)(OCOC(=O)OC(C)C)OCOC(=O)OC(C)C)cc1 [Compound I13] | > 1000 µM | 7.27 | –
